The values below come from patent publication US10295552B2, “Method for diagnosis of primary hyperaldosteronism” (ATTOQUANT D[…], priority 2013, dated 2019).

The subject of assay [1] is aldosterone-to-angiotensin II ratio (AA2R). Briefly: Aldosterone-to-angiotensin II ratio (AA2R) before and 4 h after a single dose of a RAS blocker. Format: in vivo, human. The following applies: 5 healthy volunteers, 4 h post administration vs predose, heparin plasma equilibrated 60 min at 37° C. The procedure: (§1) FIG. 5: Comparison of the impact of RAS blocker administration on the ARR (upper panel) and the AA2R (lower panel). Plasma samples were collected from healthy volunteers before (Predose) and 4 h post administration of a single dose of an ACE inhibitor (left), renin inhibitor (middle) or angiotensin receptor blocker (ARB, right). Plasma aldosterone concentration, equilibrium angiotensin II concentration and active renin concentration were measured and the ARR and the AA2R was calculated for each sample. For calculation of the ARR, aldosterone concentrations in ng/L were divided by the plasma active renin concentration in ng/L. For calculation of the AA2R, aldosterone concentrations in pmol/L were divided by Ang II concentrations in pmol/L. Mean values of 5 healthy volunteers+/−SEM are shown in the graphs.
Single doses of three different anti-hypertensive drugs were administered to 5 healthy volunteers on 3 different treatment days separated by one week. […]
Equilibrium Ang II levels were determined by quantification of the steady-state angiotensin peptide levels in equilibrated heparin plasma samples. […] Following equilibration, plasma angiotensin peptide levels were stabilized by the addition of protease inhibitors and equilibrium peptide levels were subsequently quantified by mass spectrometry. […] Two different mass transitions were measured per analyte and standard and the concentrations were calculated by relating endogenous signals to internal standard signals under consideration of the corresponding response factors determined by calibration curves in human blank plasma.
StSable isotope-labeled aldosterone was added to the stabilized plasma samples at a concentration of 500 pg/ml for internal standardization. […] Two different mass transitions were measured per analyte and standard and the concentrations were calculated by relating endogenous signals to internal standard signals under consideration of the corresponding response factors determined by calibration curves in human blank plasma.

The subject of assay [2] is aldosterone-to-renin ratio (ARR). Kind of assay: Aldosterone-to-renin ratio (ARR) before and 4 h after a single dose of a RAS blocker. Format: in vivo, human. The following applies: 5 healthy volunteers, 4 h post administration vs predose. The procedure: as §1
Single doses of three different anti-hypertensive drugs were administered to 5 healthy volunteers on 3 different treatment days separated by one week. 4 h following administration of a single dose of 10 mg Enalapril (ACE-Inhibitor), 50 mg Losartan (ARB) or 150 mg Aliskiren (Renin-Inhibitor), heparin blood was collected by venous puncture and plasma was separated by centrifugation. Samples were frozen at −80° C. till analysis.
StSable isotope-labeled aldosterone was added to the stabilized plasma samples at a concentration of 500 pg/ml for internal standardization. Following C18-based solid-phase-extraction, samples were subjected to mass spectrometry analysis using a reversed-phase analytical column (Acquity UPLC® C18, Waters) operating in line with a XEVO TQ-S triple quadrupole mass spectrometer (Waters) in MRM mode. Two different mass transitions were measured per analyte and standard and the concentrations were calculated by relating endogenous signals to internal standard signals under consideration of the corresponding response factors determined by calibration curves in human blank plasma.

Take `COCCCOc1cc(C[C@@H](C[C@H](N)[C@@H](O)C[C@H](C(=O)NCC(C)(C)C(N)=O)C(C)C)C(C)C)ccc1OC` [Aliskiren]: the “change in the AA2R (aldosterone pmol/L divided by equilibrium Ang II pmol/L)” value in assay [1] is given as “did not significantly affect”. Further, in assay [2], the “change in the ARR (aldosterone ng/L divided by plasma active renin concentration ng/L)” value was “highly significant and profound decrease”.

On to `CCOC(=O)[C@H](CCc1ccccc1)N[C@@H](C)C(=O)N1CCC[C@H]1C(=O)O` [Enalapril], for which the “change in the AA2R (aldosterone pmol/L divided by equilibrium Ang II pmol/L)” value in assay [1] is “did not significantly affect”. Further, in assay [2], the “change in the ARR (aldosterone ng/L divided by plasma active renin concentration ng/L)” value is “highly significant and profound decrease”.

As for `CCCCc1nc(Cl)c(CO)n1Cc1ccc(-c2ccccc2-c2nn[nH]n2)cc1` [Losartan], the “change in the AA2R (aldosterone pmol/L divided by equilibrium Ang II pmol/L)” value in assay [1] was “significant decrease”. Moreover, the “change in the ARR (aldosterone ng/L divided by plasma active renin concentration ng/L)” value in assay [2] was “highly significant and profound decrease”.
